Experimental findings from US5756423A, “Method of controlling plants by inhibition of farnesyl pyrophosphate synthase” (Zeneca Limited, priority 1997, dated 1998) are described below.

Where two headings read alike, the source gives them in different places.

For assay [1], the system named is farnesyl pyrophosphate synthase in daffodil chromoplasts. Put plainly: inhibition of farnesyl pyrophosphate synthase in daffodil chromoplasts (14C-isopentenyl pyrophosphate incorporation). The class given is biochemical, Narcissus pseudonarcissus. Particulars: unit inferred, IC50 values in nM, read-out: IC50. Here is the method:
The IC50 value may be determined as follows. Daffodil chromoplasts are diluted to a volume of 500 microliters in a buffer containing 0.5M sucrose, 3 mM MgCl2, 1 mM ethylenediaminetetraacetic acid, 20 mM N-tris[hydroxymethyl]methyl-2-aminoethanesulfonic acid, […] N-[2-hydroxyethyl]-piperazine-N'-[2-ethanesulfonic acid], 5 mM L-cysteine, 10 mM sodium fluoride, and 0.1% bovine serum albumin at pH 7.7. The inhibitor to be tested may be dissolved in water other suitable solvent and then added to the reaction mixture. The assay is started by the addition of ^14 C-labeled isopentenyl pyrophosphate (52 Ci/mol) to give a final concentration in the assay of about 3 micromolar. The mixture is incubated at 30° C. with gentle agitation for a period of about 30 min. The reaction may be stopped by the addition of 0.5 mL of saturated NaCl and 2 mL of n-butanol saturated with water. After thorough mixing, the turbid suspensions are centrifuged briefly to separate the layers, and 1 mL of the bright yellow upper butanol layer is added to 10 mL of a suitable scintillation fluid which gives a single phase. The butanol soluble radioactivity is then measured in a scintillation counter.
In addition, the problem of variable quenching differences among different experiments can be essentially eliminated by determining the incorporation of radioactivity relative to controls. Each set of experiments requires two control tubes identical to the test samples except that they contain no inhibitor. One of these is quenched immediately (TO sample) and one is quenched at the end of the normal incubation period (T100 sample).
For each concentration of inhibitor examined the % residual activity is determined from the formula [formula]
Tightly closed daffodil flowers (Narcissus pseudonarcissus) were allowed to open at room temperature. […] Coronae were placed in twice their weight of isolation buffer consisting of 67 mM potassium phosphate, 0.74M sucrose, 5 mM MgCl2, and 0.2% polyvinyl-pyrrolidone at pH 7.6 and were disrupted by 30 seconds of homogenization at high speed in a Waring-type blender. The mixture was filtered through several layers of cheesecloth and 2 layers of 100 micron nylon mesh, and the resulting filtrate was centrifuged at 1000×g for 10 minutes. The pellet was discarded and supernatant was centrifuged at 22,000×g for 20 minutes. […] This solution was centrifuged at 22,000×g for 20 minutes to give orange pellets which were suspended in a buffer of 100 mM tris(hydroxymethyl)aminomethane at pH 7.6 containing 5mM MgCl2 and 2 mM dithiothreitol (1 ml per 10 coronae). This solution was frozen in liquid nitrogen and then stored at -80° C.
Thawed daffodil chromoplasts (100-150 microliters) were diluted to a final volume of 500 microliters in a buffer containing 0.5M sucrose, 3 mM MgCl2, 1 mM ethylenediaminetetraacetic acid, 10 mM N-[2-hydroxyethyl]piperazine-N^1 -[2-ethanesulfonic acid], 5 mM L-cysteine, 10 mM sodium fluoride, and 0.1% bovine serum albumin at pH 7.7. The inhibitor to be tested was dissolved in water or other suitable solvent and was added to the reaction mixture. The assay was started by the addition of ^14 C-labeled isopentenyl pyrophosphate (52 Ci/mol) to give a final concentration in the assay of about 3 micromolar. The mixture was incubated at 30° C. with gentle agitation for a period of about 30 minutes. The reaction was stopped by the addition of 0.5 mL of saturated NaCl and 2 mL of n-butanol saturated with water. After thorough mixing, the turbid suspensions were centrifuged briefly to separate the layers, and 1 mL of the bright yellow upper butanol layer was added to 10 mL of a suitable scintillation fluid which gave a single phase. The butanol soluble radioactivity was then measured in a scintillation counter. Each set of experiments required two control tubes identical to the test samples except that they contain no inhibitor.

In assay [2] the test system is wild oat (Avena fatua) (AVEFA). The experiment in a line: post-emergent herbicidal test, wild oat. The class given is in vivo. Particulars: for pest or weed control at 1000 g/ha / pest or weed control at 4000 g/ha: Avena fatua, post-emergence, read-out: AVEFA percent control; for pest or weed control at 4000 g/ha: 4.0 kg/ha. The source says:
(§1) Seeds of several different weed species were planted in sandy loam soil containing only trace organic matter. Propagules were sown in individuals rows using one species per row across the width of an aluminum flat (19.5×9.5×6 cm). The grass weeds planted were green foxtail (Setaria viridis) ("SETVI"), wild oat (Avena fatua) ("AVEFA"), barnyard grass (Enchinochloa crusgalli) ("ECHCG"). Broadleaf weeds utilized were wild mustard (Brassica kaber), also known as Sinapis arvensis, ("SINAR"), velvetleaf (Abutilon theophrasti) ("ABUTH") and morningglory (Ipomoea spp.) ("IPOSS"). Additionally, yellow nutsedge (Cyperus esculentus) ("CYPES"), nutlets were sown. Seeding depths ranged from 1.0 to 1.5 cm and plant densities ranged from 3 to 25 plants per row depending on individual plant species.
(§2) The flats were placed into a greenhouse and watered overhead by sprinkling. The greenhouse environmental systems provided the plants with natural and artificial (via metal halide lamps) lighting to attain 14 hours of light per day. Day and night temperatures were maintained at 29° and 21° C. respectively. The plants were grown for 10 to 12 days (or to the appropriate growth stage) prior to compound application. Grasses were sprayed at a 3 to 4 leaf stage and broadleaves at a 1 to 2 leaf stage. Yellow nutsedge was 5 to 7 cm tall at application.
(§3) Solutions of the test compounds were prepared by weighing out 18.8 and 74.7 mg for 1 and 4 kg/ha applications respectively, of the test compound into a 60 ml wide-mouth bottle, then dissolving the compound in 14.0 ml of deionized water containing 0.5% v/v Tween 20' (polyoxyethylene sorbitan monolaurate emulsifier) as a surfactant. Additional solvents, not exceeding 2 ml (15% of spray volume), were used if needed to dissolve the compound.
(§4) The plants were sprayed inside an enclosed linear spray table with the nozzle set at 30.5 cm (12 inches) above the foliage.
(§5) Treated plants were then returned to a greenhouse and watered daily without wetting the foliage.
(§6) The degree of weed control was evaluated 17-21 days after application and recorded as percentage of control as compared to the growth of the same species in an untreated control flat of the same. Percent control is the total injury to the plants due to all factors including: inhibited emergence, stunting, malformation, chlorosis and other types of plant injury. The control ratings range from 0 to 100 percent, where 0% represents no effect with growth equal to the untreated control and where 100% represents complete kill.

Assay [3] has as its system barnyard grass (Enchinochloa crusgalli) (ECHCG). Put plainly: post-emergent herbicidal test, barnyard grass. The class given is in vivo. Conditions: for pest or weed control at 1000 g/ha / pest or weed control at 4000 g/ha: Echinochloa crus-galli, post-emergence, read-out: ECHCG percent control; for pest or weed control at 4000 g/ha: 4.0 kg/ha.
Excerpt: as §1, §2, §3, §4, §5, §6

Assay [4] deals with green foxtail (Setaria viridis) (SETVI). Put plainly: post-emergent herbicidal test, green foxtail. The class given is in vivo. Particulars: for pest or weed control at 1000 g/ha / pest or weed control at 4000 g/ha: Setaria viridis, post-emergence, read-out: SETVI percent control; for pest or weed control at 4000 g/ha: 4.0 kg/ha.
Excerpt: as §1, §2, §3, §4, §5, §6

Assay [5] concerns velvetleaf (Abutilon theophrasti) (ABUTH). The experiment in a line: post-emergent herbicidal test, velvetleaf. The class given is in vivo. Particulars: for pest or weed control at 1000 g/ha / pest or weed control at 4000 g/ha: Abutilon theophrasti, post-emergence, read-out: ABUTH percent control; for pest or weed control at 4000 g/ha: 4.0 kg/ha.
Excerpt: as §1, §2, §3, §4, §5, §6

Assay [6] relates to morningglory (Ipomoea spp.) (IPOSS). Put plainly: post-emergent herbicidal test, morningglory. The class given is in vivo. Conditions: for pest or weed control at 1000 g/ha / pest or weed control at 4000 g/ha: Ipomoea, post-emergence, read-out: IPOSS percent control; for pest or weed control at 4000 g/ha: 4.0 kg/ha.
Excerpt: as §1, §2, §3, §4, §5, §6

For assay [7], the system named is wild mustard (Brassica kaber), also known as Sinapis arvensis (SINAR). The experiment in a line: post-emergent herbicidal test, wild mustard. Particulars: for pest or weed control at 1000 g/ha / pest or weed control at 4000 g/ha: Brassica, post-emergence, read-out: SINAR percent control; for pest or weed control at 4000 g/ha: 4.0 kg/ha. The class given is in vivo.
Excerpt: as §1, §2, §3, §4, §5, §6

The subject of assay [8] is yellow nutsedge (Cyperus esculentus) (CYPES). Put plainly: post-emergent herbicidal test, yellow nutsedge. The class given is in vivo. Conditions: for pest or weed control at 1000 g/ha / pest or weed control at 4000 g/ha: Cyperus, post-emergence, read-out: CYPES percent control; for pest or weed control at 4000 g/ha: 4.0 kg/ha.
Excerpt: as §1, §2, §3, §4, §5, §6

The mark [9] stands for this setting: post-emergent, 1.0 kg/ha (*), 17-21 days after application.
[10] abbreviates: post-emergent, 17-21 days after application.

By IC50 is commonly meant the concentration needed to halve the response being measured. With `CCCCCCNCC(P(=O)(O)O)P(=O)(O)O` [Compound 17], the IC50 in assay [1] (Table I) and in assay [1] (Table II) was 316 nM in each case. The pest or weed control at 1000 g/ha in assay [2] (setting [9]) is 75%; in assay [3] (setting [9]), 50%; in assay [4] (setting [9]), 60%; in assay [5] (setting [9]) it was 0%; in assay [6] (setting [9]), 10%; in assay [7] (setting [9]), 50%. In assay [8] (setting [9]), the pest or weed control at 1000 g/ha turned out to be 0%.

On to `CC(NCC(P(=O)(O)O)P(=O)(O)O)c1ccccc1` (stereo not drawn) [Compound 27], for which the concentration for half-maximal inhibition (IC50) in assay [1] (Table I) and in assay [1] (Table II) was 1230 nM in each case. In assay [2] (setting [9]), this compound came in with an AVEFA percent control of 80%. In addition, in assay [3] (setting [9]), the ECHCG percent control is given as 90%. The SETVI percent control in assay [4] (setting [9]) was determined as 90%. This compound yielded an ABUTH percent control in assay [5] (setting [9]) of 75%. Also, the IPOSS percent control in assay [6] (setting [9]) turned out to be 5%. Moreover, the SINAR percent control in assay [7] (setting [9]) stood at 100%. Besides, in assay [8] (setting [9]), the CYPES percent control amounted to 75%.

With `O=P(O)(O)C(CNC1CC1)P(=O)(O)O` [Compound 42], the 50% inhibitory concentration (IC50) in assay [1] (Table I) and in assay [1] (Table II) was 27 nM throughout. Besides, the pest or weed control at 1000 g/ha in assay [2] turned out to be 100%; in assay [3], 95%; in assay [4], 95%; in assay [5] it was 10%; in assay [6], 90%; in assay [7], 100%. For the same compound, the pest or weed control at 1000 g/ha in assay [8] was 20%.

In the case of `O=P(O)(O)C(CNC1CCCCC1)P(=O)(O)O` [Compound 5], the concentration for half-maximal inhibition (IC50) in assay [1] (Table I) and in assay [1] (Table II) was 425 nM each time. For the same compound, the pest or weed control at 4000 g/ha in assay [2] (setting [10]) is 98%; in assay [3] (setting [10]) it was 98%; in assay [4] (setting [10]), 98%; in assay [5] (setting [10]), 60%; in assay [6] (setting [10]), 60%; in assay [7] (setting [10]), 100%. The pest or weed control at 4000 g/ha in assay [8] (setting [10]) was found to be 10%.

For the compound `CC(C)N(C)CC(P(=O)(O)O)P(=O)(O)O` [Compound 33], the half-inhibitory concentration (IC50) in assay [1] (Table I) and in assay [1] (Table II) was 178 nM in each case. The pest or weed control at 1000 g/ha in assay [2] (setting [9]) was 100%; in assay [3] (setting [9]), 100%; in assay [4] (setting [9]) it was 95%; in assay [5] (setting [9]) it was 50%; in assay [6] (setting [9]), 65%; in assay [7] (setting [9]), 100%. Further, in assay [8] (setting [9]), the pest or weed control at 1000 g/ha stood at 10%.

On to `CC1CCCCN1CC(P(=O)(O)O)P(=O)(O)O` (stereo not drawn) [Compound 10], for which the IC50 in assay [1] (Table I) and in assay [1] (Table II) was 83 nM throughout. The pest or weed control at 4000 g/ha in assay [2] (setting [10]) was 100%; in assay [3] (setting [10]) it was 85%; in assay [4] (setting [10]), 85%; in assay [5] (setting [10]), 50%; in assay [6] (setting [10]), 90%; in assay [7] (setting [10]) it was 100%. The pest or weed control at 4000 g/ha in assay [8] (setting [10]) amounted to 5%.

Turning to `CC(C)CNCC(P(=O)(O)O)P(=O)(O)O` [Compound 12], the IC50 in assay [1] (Table I) and in assay [1] (Table II) was 150 nM each time. Moreover, the pest or weed control at 4000 g/ha in assay [2] (setting [10]) amounted to 100%; in assay [3] (setting [10]) it was 98%; in assay [4] (setting [10]), 98%; in assay [5] (setting [10]) it was 98%; in assay [6] (setting [10]) it was 90%; in assay [7] (setting [10]), 100%. In addition, the pest or weed control at 4000 g/ha in assay [8] (setting [10]) stood at 70%.

As for `CCCCN(CCCC)CC(P(=O)(O)O)P(=O)(O)O` [Compound 24], the IC50 in assay [1] (Table I) and in assay [1] (Table II) was 190 nM in each case. Besides, the pest or weed control at 1000 g/ha came to 98% in assay [2] (setting [9]); 98% in assay [3] (setting [9]); 85% in assay [4] (setting [9]); 0% in assay [5] (setting [9]); 5% in assay [6] (setting [9]); 30% in assay [7] (setting [9]). For the same compound, the pest or weed control at 1000 g/ha in assay [8] (setting [9]) amounted to 10%.
